Measured values: patent US20070219180A1, “Muscle Relaxtion Accelerator and Therapeutic Agent for Muscular Tissue Diseases Such as Muscle Relaxation Failure” (priority 2004, published 2007)

Test system: binding of troponin I to the actin-tropomyosin complex
Test: Experiment 4 and comparison example: co-precipitation (binding) of troponin I with the actin-tropomyosin complex in the presence of EGTA
Set-up: species or system swine
Conditions: for Precipitate of troponin I (ratio to the sample without drug): 10 mM EGTA, 100,000×g 120 min 25° C.
Method: The actin-tropomyosin complex and the troponin C-I complex are usually detected by analyzing the precipitate obtained by ultracentrifugation of a mixture containing the actin-tropomyosin complex and the troponin C-I complex for 120 minutes at 100,000×g at 25° C. The binding of the troponin C-I complex to the actin-tropomyosin complex in muscle tissues can be confirmed by the detected actin-tropomyosin complex and the detected troponin C-I complex. For example, when a mixture containing the actin-tropomyosin complex and the troponin C-I complex is ultracentrifuged in the presence of EGTA as a calcium chelating agent (in other words, in the absence of calcium ions), the actin-tropomyosin complex and the troponin C-I complex combine each other to precipitate together. Detection of troponin I in the precipitate using SDS-gel electrophoresis allows confirmation that the precipitate contains a complex formed by the actin-tropomyosin complex and the troponin C-I complex.
A precipitate due to binding of the actin-tropomyosin complex and troponin I is usually not formed when a mixture containing the actin-tropomyosin complex, troponin and propranolol (a β-blocker) used as a therapeutic agent for heart failure is ultracentrifuged at 100,000×g for 120 minutes 25° C.
Swine muscle-derived actin, chicken gizzard-derived tropomyosin and swine myocardium-derived troponin used in this experiment were purchased from Sigma-Aldrich Corporation, and other unspecified reagents used in this experiment were purchased from Wako Pure Chemical Industries Ltd.
A 500 μl sample was prepared by adding 4.2 μg of actin, 2.1 μg of tropomyosin and 14 μg of troponin to 500 μl of a reaction solution containing 60 mM KCl, 20 mM MOPS (3-morpholinopropanesulfonic acid), 2 mM of MgCl2, 0.05 μg of pepstatin A, and 15 mM 2-mercaptoethanol. After centrifugation of this sample at 2,000×g for 10 minutes at 25° C., the precipitate was removed and the resulting supernatant was distributed to separate test tubes containing 10 mM of EGTA, and each tube was determined as a test sample.
Each test sample was reacted for 120 minutes at 25° C. and centrifuged at 100,000×g for 120 minutes at 25° C., and the supernatants were removed. After reaction solution was gently added to the removed precipitate so as not to suspend the precipitate, the precipitate was again removed by suction, washed, and determined as a test precipitate.
A sample buffer for polyacrylamide gel electrophoresis (SDS-PAGE) was added to each washed test precipitate and mixed well to suspend the test precipitate. The resulting suspension was electrophoresized on a gel (PAG MINI “No. 1” 10/20) for about 1 hour at 40 mA. After electrophoresis, the suspension was silver-stained using “Daiichi” 2D-silver staining reagent (Daiichi Pure Chemicals Co., Ltd), and washed with distilled water and dried. The amount of precipitate in each silver-stained protein band obtained by gel electrophoresis was quantitated using a densitometer.
The amounts of precipitate of troponin I in the second to fifth test precipitates were calculated as ratios of the amount of precipitate of troponin I in the first test precipitate, which was obtained without the compound (the concentration of the compound was 0 M).
The affinity of troponin I for the actin-tropomyosin complex was measured using the same method as in Experiment 4, but using propranolol (a β-blocker which is used as a therapeutic agent for heart failure) for comparison with the compound in the invention.
A 500 μl sample was prepared by adding 4.2 μg of actin, 2.1 μg of tropomyosin and 14 μg of troponin I to 500 μl of a reaction solution containing 60 mM KCl, 20 mM MOPS (3-morpholinopropanesulfonic acid), 2 mM MgCl2, 0.05 μg of pepstatin A, and 15 mM 2-mercaptoethanol. […]

In the case of `CC(C)NCC(O)COc1cccc2ccccc12` (centres unmarked) [Propranolol, propranolol], the “Precipitate of troponin I (ratio to the sample without drug)” value (drug concentration 10^−4 mol) is reported as 1.1, the “Precipitate of troponin I (ratio to the sample without drug)” value (drug concentration 10^−5 mol) is reported as 0.9 and the “Precipitate of troponin I (ratio to the sample without drug)” value (drug concentration 10^−6 mol) is reported as 1.1. For the same compound, the “Precipitate of troponin I (ratio to the sample without drug)” value (drug concentration 10^−7 mol) was 0.9 and the “Effect on the bonding strength of troponin I to the actin-tropomyosin complex (co-precipitation)” value (ultracentrifugation 100,000×g, 120 minutes, 25° C.) was “does not enhance the bonding strength of troponin to the actin-tropomyosin complex”.
